Read-outs that look alike come from different tables or passages of the source.
How the values were obtained:
Format in all cases: cell-based, human
MV4;11 cells = test: Cell proliferation experiment (Alamar blue, 72 h), MV4;11
Outline: (§1)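 Cells were passaged at least twice, harvested in log phase and plated in 96 wells. Compound in complete medium was added at 5-fold gradient concentrations, duplicates per concentration. After 72 h culture, Alamar blue fluorescence was measured and IC50 fitted.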

Daudi cells = test: Cell proliferation experiment, Daudi; details: read-out: Inhibitory activity IC50 on Daudi
Outline: as §1

MDA-MB-231 cells = test: Cell proliferation experiment, MDA-MB-231
Outline: as §1

PC-3 = test: Cell proliferation experiment, PC-3
Outline: as §1

NCIH82 cells = test: Cell proliferation experiment, NCI-H82; details: Homo sapiens, NCI-H82, NCI-H82 cells; read-out: Inhibitory activity IC50 on NCI-H82
Outline: as §1

[1] = Homo sapiens, MV4-11, MV4;11 cells, read-out: Inhibitory activity IC50 on MV4;11
[2] = Homo sapiens, Daudi, Daudi cells
[3] = Homo sapiens, MDA-MB-231, MDA-MB-231 cells, read-out: Inhibitory activity IC50 on MDA-MB-231
[4] = Homo sapiens, PC-3, PC-3 cells, read-out: Inhibitory activity IC50 on PC-3
[5] = MDA-MB-231 cells, read-out: Inhibitory activity IC50 on MDA-MB-231

IC50 (MV4;11 cells; [1]) [nM]	IC50 (Daudi cells; [2]) [nM]	IC50 (MDA-MB-231 cells; [3]) [nM]	IC50 (PC-3; [4]) [nM]	IC50 (NCIH82 cells) [nM]	Compound	further results
< 10	10 to 100	10 to 100	10 to 100	–	CC[C@@H]1C(=O)N(C)c2cnc(Nc3ccc(C(=O)N[C@H]4CC[C@@H](NCCOCCC#Cc5cccc6c5CN(C5CCC(=O)NC5=O)C6=O)CC4)cc3OC)nc2N1C1CCCC1 (stereo partly drawn) [UB-180937]	–
< 10	< 10	< 10	< 10	–	CC[C@@H]1C(=O)N(C)c2cnc(Nc3ccc(-c4cn(C5CCC(NCCOCCC#Cc6cccc7c6CN(C6CCC(=O)NC6=O)C7=O)CC5)nn4)cc3OC)nc2N1C1CCCC1 (stereo partly drawn) [UB-180961]	–
< 10	–	–	10 to 100	–	CC[C@@H]1C(=O)N(C)c2cnc(Nc3ccc(-c4cn([C@H]5CC[C@@H](NCCOCCC#Cc6cccc7c6CN(C6CCC(=O)NC6=O)C7=O)CC5)nn4)cc3)nc2N1C1CCCC1 (stereo partly drawn) [UB-181099]	IC50 (Daudi cells; Daudi cells): 10 to 100 nM; IC50 (MDA-MB-231 cells; [5]): 10 to 100 nM
< 10	10 to 100	10 to 100	10 to 100	–	CC[C@@H]1C(=O)N(C)c2cnc(Nc3ccc(-c4cn([C@H]5CC[C@H](NCCOCCC#Cc6cccc7c6CN(C6CCC(=O)NC6=O)C7=O)CC5)nn4)cc3OC)nc2N1C1CCCC1 (stereo partly drawn) [UB-181108]	–
< 10	100 to 1000	10 to 100	10 to 100	–	CC[C@@H]1C(=O)N(C)c2cnc(Nc3ccc(-c4cn([C@H]5CC[C@H](NCCOCCC#Cc6cccc7c6CN(C6CCC(=O)NC6=O)C7=O)CC5)nn4)cc3)nc2N1C1CCCC1 (stereo partly drawn) [UB-181118]	–
< 10	10 to 100	10 to 100	10 to 100	–	CC[C@@H]1C(=O)N(C)c2cnc(Nc3ccc(C(=O)N[C@H]4CC[C@H](NCCOCCC#Cc5cccc6c5CN(C5CCC(=O)NC5=O)C6=O)CC4)cc3)nc2N1C1CCCC1 (stereo partly drawn) [UB-181144]	–
< 10	< 10	< 10	< 10	–	CC[C@@H]1C(=O)N(C)c2cnc(Nc3ccc(-c4cn([C@H]5CC[C@@H](NCCOCCC#Cc6cccc7c6CN(C6CCC(=O)NC6=O)C7=O)CC5)nn4)cc3OC)nc2N1Cc1ccc(Cl)s1 (stereo partly drawn) [UB-181145]	–
< 10	10 to 100	10 to 100	10 to 100	–	CC[C@@H]1C(=O)N(C)c2cnc(Nc3ccc(C(=O)N[C@H]4CC[C@@H](NCCOCCC#Cc5cccc6c5CN([C@H]5CCC(=O)NC5=O)C6=O)CC4)cc3)nc2N1C1CCCC1 [UB-181170]	–
10 to 100	> 1000	> 1000	> 1000	–	CC[C@@H]1C(=O)N(C)c2cnc(Nc3ccc(C(=O)NC4CCN(CCOCCN(C)CC(=O)Nc5cccc6c5CN(C5CCC(=O)NC5=O)C6=O)CC4)nc3)nc2N1C1CCCC1 (stereo partly drawn) [UB-181171]	–
< 10	10 to 100	10 to 100	10 to 100	–	CC[C@@H]1C(=O)N(C)c2cnc(Nc3ccc(C(=O)N[C@H]4CC[C@@H](N(C)CCOCCC#Cc5cccc6c5CN(C5CCC(=O)NC5=O)C6=O)CC4)cc3)nc2N1C1CCCC1 (stereo partly drawn) [UB-181175]	–
< 10	10 to 100	10 to 100	10 to 100	–	CC[C@@H]1C(=O)N(C)c2cnc(Nc3ccc(C(=O)N[C@H]4CC[C@H](N(C)CCOCCC#Cc5cccc6c5CN(C5CCC(=O)NC5=O)C6=O)CC4)cc3)nc2N1C1CCCC1 (stereo partly drawn) [UB-181176]	–
< 10	10 to 100	< 10	< 10	–	CC[C@@H]1C(=O)N(C)c2cnc(Nc3ccc(C(=O)N[C@H]4CC[C@@H](N(C)CCOCCC#Cc5cccc6c5CN(C5CCC(=O)NC5=O)C6=O)CC4)cc3OC)nc2N1C1CCCC1 (stereo partly drawn) [UB-181177]	–
< 10	< 10	10 to 100	10 to 100	–	CC[C@@H]1C(=O)N(C)c2cnc(Nc3ccc(C(=O)N[C@H]4CC[C@H](N(C)CCOCCC#Cc5cccc6c5CN(C5CCC(=O)NC5=O)C6=O)CC4)cc3OC)nc2N1C1CCCC1 (stereo partly drawn) [UB-181178]	–

More lines, now with the values behind:

Compound	IC50 (MV4;11 cells; [1]) [nM]	IC50 (Daudi cells; [2]) [nM]	IC50 (MDA-MB-231 cells; [3]) [nM]	IC50 (PC-3; [4]) [nM]	IC50 (NCIH82 cells) [nM]	further results
CCNC(=O)C#Cc1ccc2c(c1)NC(=O)/C2=C(\Nc1ccc(CNCCOCCOCCOCCOCCC(=O)Nc2ccc3c(c2)CN(C2CCC(=O)NC2=O)C3=O)cc1)c1ccccc1 (stereo not drawn) [UB-180957]	10 to 100	100 to 1000	> 1000	> 1000	100 to 1000	–
CNC(=O)c1ccccc1Nc1nc(Nc2ccc(N3CCN(C(=O)NCCCCOCCCCNCC(=O)Nc4cccc5c4CN(C4CCC(=O)NC4=O)C5=O)CC3)cc2)ncc1Cl (stereo not drawn) [UB-181048]	< 10	10 to 100	> 1000	> 1000	100 to 1000	–
CC[C@@H]1C(=O)N(C)c2cnc(Nc3ccc(C(=O)N[C@H]4CC[C@H](NCCOCCC#Cc5cccc6c5CN(C5CCC(=O)NC5=O)C6=O)CC4)cc3OC)nc2N1C1CCCC1 (stereo partly drawn) [UB-181113]	–	–	–	–	–	IC50 (MV4;11 cells; Homo sapiens, MV4-11, read-out: Inhibitory activity IC50 on MV4;11): < 10 nM; IC50 (Daudi cells; Homo sapiens, Daudi): 10 to 100 nM; IC50 (MDA-MB-231 cells; Homo sapiens, MDA-MB-231, read-out: Inhibitory activity IC50 on MDA-MB-231): 10 to 100 nM; IC50 (PC-3; Homo sapiens, PC-3, read-out: Inhibitory activity IC50 on PC-3): 10 to 100 nM
CNC(=O)c1ncccc1Nc1nc(Nc2ccc(N3CCN(C(=O)NC4CCC(NCCOCCC#Cc5cccc6c5CN(C5CCC(=O)NC5=O)C6=O)CC4)CC3)cc2)ncc1Cl (stereo not drawn) [UB-181128]	< 10	–	> 1000	> 1000	> 1000	–
CNC(=O)c1ncccc1Nc1nc(Nc2ccc(N3CCN(C(=O)NC4CCC(NCCOCCC#Cc5ccc6c(c5)CN(C5CCC(=O)NC5=O)C6=O)CC4)CC3)cc2)ncc1Cl (stereo not drawn) [UB-181129]	10 to 100	–	> 1000	> 1000	100 to 1000	–
N#Cc1ccccc1Nc1nc(Nc2ccc(N3CCN(C(=O)N[C@H]4CC[C@@H](NCCOCCC#Cc5cccc6c5CN(C5CCC(=O)NC5=O)C6=O)CC4)CC3)cc2)ncc1Cl (stereo partly drawn) [UB-181132]	< 10	–	100 to 1000	100 to 1000	100 to 1000	–
N#Cc1ccccc1Nc1nc(Nc2ccc(N3CCN(C(=O)N[C@H]4CC[C@@H](NCCOCCC#Cc5ccc6c(c5)CN(C5CCC(=O)NC5=O)C6=O)CC4)CC3)cc2)ncc1Cl (stereo partly drawn) [UB-181133]	10 to 100	–	> 1000	100 to 1000	100 to 1000	–
N#Cc1ccccc1Nc1nc(Nc2ccc(C3CCN(C(=O)N[C@H]4CC[C@@H](NCCOCCC#Cc5cccc6c5CN(C5CCC(=O)NC5=O)C6=O)CC4)CC3)cc2)ncc1Cl (stereo partly drawn) [UB-181134]	10 to 100	–	> 1000	> 1000	> 1000	–
N#Cc1ccccc1Nc1nc(Nc2ccc(C3CCN(C(=O)N[C@H]4CC[C@@H](NCCOCCC#Cc5ccc6c(c5)CN(C5CCC(=O)NC5=O)C6=O)CC4)CC3)cc2)ncc1Cl (stereo partly drawn) [UB-181135]	10 to 100	–	> 1000	> 1000	> 1000	–
CS(=O)(=O)c1ccccc1Nc1nc(Nc2ccc(C3CCN(C(=O)N[C@H]4CC[C@H](NCCOCCC#Cc5cccc6c5CN(C5CCC(=O)NC5=O)C6=O)CC4)CC3)cc2)ncc1Cl (stereo partly drawn) [UB-181139]	< 10	–	100 to 1000	100 to 1000	100 to 1000	–
CS(=O)(=O)c1ccccc1Nc1nc(Nc2ccc(C3CCN(C(=O)N[C@H]4CC[C@@H](NCCOCCC#Cc5ccc6c(c5)CN(C5CCC(=O)NC5=O)C6=O)CC4)CC3)cc2)ncc1Cl (stereo partly drawn) [UB-181140]	< 10	–	100 to 1000	100 to 1000	100 to 1000	–
CC[C@@H]1C(=O)N(C)c2cnc(Nc3ccc(C(=O)NC4CCN(CCOCCN(C)CC(=O)Nc5cccc6c5CN(C5CCC(=O)NC5=O)C6=O)CC4)cc3)nc2N1C1CCCC1 (stereo partly drawn) [UB-181143]	10 to 100	100 to 1000	100 to 1000	100 to 1000	–	–
CC(=O)c1ccccc1Nc1nc(Nc2ccc(C3CCN(C(=O)N[C@H]4CC[C@H](NCCOCCC#Cc5cccc6c5CN(C5CCC(=O)NC5=O)C6=O)CC4)CC3)cc2)ncc1Cl (stereo partly drawn) [UB-181146]	< 10	–	> 1000	> 1000	> 1000	–
NC(=O)c1ccccc1Nc1nc(Nc2ccc(C3CCN(C(=O)N[C@H]4CC[C@H](NCCOCCC#Cc5cccc6c5CN(C5CCC(=O)NC5=O)C6=O)CC4)CC3)cc2)ncc1Cl (stereo partly drawn) [UB-181147]	< 10	–	100 to 1000	100 to 1000	100 to 1000	–
CC[C@@H]1C(=O)N(C)c2cnc(Nc3ccc(-c4cn([C@H]5CC[C@@H](N(CCOCCC#Cc6cccc7c6CN(C6CCC(=O)NC6=O)C7=O)C(=O)OCc6ccc(NC(=O)[C@H](CC(N)=O)NC(=O)[C@H](C)NC(=O)[C@H](C)NC(=O)CCCCCN7C(=O)C=CC7=O)cc6)CC5)nn4)cc3OC)nc2N1C1CCCC1 (stereo partly drawn) [UB-181149]	100 to 1000	100 to 1000	100 to 1000	100 to 1000	–	–
CC(=O)c1ccccc1Nc1nc(Nc2ccc(C3CCN(C(=O)N[C@H]4CC[C@H](NCCOCCC#Cc5ccc6c(c5)CN(C5CCC(=O)NC5=O)C6=O)CC4)CC3)cc2)ncc1Cl (stereo partly drawn) [UB-181151]	< 10	–	> 1000	> 1000	100 to 1000	–
NC(=O)c1ccccc1Nc1nc(Nc2ccc(C3CCN(C(=O)NC4CCC(NCCOCCC#Cc5ccc6c(c5)CN(C5CCC(=O)NC5=O)C6=O)CC4)CC3)cc2)ncc1Cl (stereo not drawn) [UB-181152]	< 10	–	100 to 1000	100 to 1000	100 to 1000	–
CC[C@@H]1C(=O)N(C)c2cnc(Nc3ccc(-c4cn([C@H]5CC[C@@H](NCCOCCC#Cc6cccc7c6CN(C6CCC(=O)NC6=O)C7=O)CC5)nn4)cc3)nc2N1C1CCCC1 (stereo partly drawn) [UB-181154]	–	–	–	–	–	IC50 (MV4;11 cells; MV4;11 cells, read-out: Inhibitory activity IC50 on MV4;11): < 10 nM; IC50 (Daudi cells; Daudi cells): 100 to 1000 nM; IC50 (MDA-MB-231 cells; [5]): 100 to 1000 nM; IC50 (PC-3; PC-3 cells, read-out: Inhibitory activity IC50 on PC-3): 10 to 100 nM

— patent publication US20230210999A1, “TARGETED PROTEASE DEGRADATION (TED) PLATFORM” (EUBULUS BIOTHERAPEUTICS INC., priority 2020, published 2023)
